Article PMC11062922 (Nature Chemical Biology, 2023)
Where two headings read alike, the source gives them in different places.

Target: T1, GAK (Homo sapiens, UniProt O14976)
T1 construct: endogenous in cells
T1 sequence (O14976 1-1311): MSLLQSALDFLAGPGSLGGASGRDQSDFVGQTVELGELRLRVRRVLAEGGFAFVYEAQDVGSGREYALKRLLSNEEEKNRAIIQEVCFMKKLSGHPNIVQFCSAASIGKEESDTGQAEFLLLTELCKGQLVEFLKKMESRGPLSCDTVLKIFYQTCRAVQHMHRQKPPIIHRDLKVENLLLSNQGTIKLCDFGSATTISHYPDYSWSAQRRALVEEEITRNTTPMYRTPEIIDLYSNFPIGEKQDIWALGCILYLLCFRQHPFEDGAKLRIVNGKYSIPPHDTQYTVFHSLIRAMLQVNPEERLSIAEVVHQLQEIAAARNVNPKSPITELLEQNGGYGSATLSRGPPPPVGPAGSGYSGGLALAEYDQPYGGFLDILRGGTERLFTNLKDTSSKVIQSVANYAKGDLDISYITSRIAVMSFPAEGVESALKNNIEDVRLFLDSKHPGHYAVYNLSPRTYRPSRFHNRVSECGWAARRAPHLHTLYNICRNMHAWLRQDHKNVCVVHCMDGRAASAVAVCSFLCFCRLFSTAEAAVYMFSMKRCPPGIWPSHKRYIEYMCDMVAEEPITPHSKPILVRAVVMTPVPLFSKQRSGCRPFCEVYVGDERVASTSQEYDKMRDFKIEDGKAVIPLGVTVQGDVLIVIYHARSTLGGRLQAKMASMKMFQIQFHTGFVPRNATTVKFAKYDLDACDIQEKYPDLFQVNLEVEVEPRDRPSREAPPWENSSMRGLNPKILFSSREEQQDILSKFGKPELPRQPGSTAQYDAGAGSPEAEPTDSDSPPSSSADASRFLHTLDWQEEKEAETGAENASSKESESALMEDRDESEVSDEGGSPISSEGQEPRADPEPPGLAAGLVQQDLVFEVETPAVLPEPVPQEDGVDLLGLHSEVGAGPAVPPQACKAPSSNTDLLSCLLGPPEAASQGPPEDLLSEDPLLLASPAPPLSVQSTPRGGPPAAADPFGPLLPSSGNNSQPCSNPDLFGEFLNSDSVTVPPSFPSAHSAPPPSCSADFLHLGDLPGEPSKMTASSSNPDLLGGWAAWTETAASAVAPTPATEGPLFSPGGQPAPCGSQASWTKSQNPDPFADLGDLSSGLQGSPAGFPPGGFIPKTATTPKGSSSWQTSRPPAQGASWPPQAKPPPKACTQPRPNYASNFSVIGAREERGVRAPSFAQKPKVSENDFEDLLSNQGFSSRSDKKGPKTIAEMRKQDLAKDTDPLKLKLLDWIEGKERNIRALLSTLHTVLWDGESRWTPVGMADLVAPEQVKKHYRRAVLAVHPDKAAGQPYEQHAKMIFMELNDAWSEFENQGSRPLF
Assay: Kinobeads two-dose competition binding: GAK
Details: for CATDS: target GAK
Excerpt: Briefly, Kinobeads comprise seven broad-spectrum small molecule kinase inhibitors immobilized on Sepharose beads. […]. Compounds of interest are set to compete for target protein binding with Kinobeads in the lysate and the amount of a given protein bound to Kinobeads in the presence of a compound can be quantified relative to a dimethylsulfoxide (DMSO) vehicle control by label-free mass spectrometry. This assay measures the physical interaction of a compound with thousands of endogenous proteins in parallel and, when systematically increasing the concentration of competitor, enables the calculation of an apparent interaction constant ( Kdapp ) for each compound and protein.
Kinobeads pulldown experiments were performed as described previously[13],[14],[17] with minor modification. […] The protein concentration was adjusted to 5 mg ml^−1. Kinase inhibitors were spiked into 0.5 ml of cell lysate at final concentrations of 100 and 1,000 nM (or DMSO, 0.3, 1, 3, 10, 30, 100, 300 and 1,000 nM for full dose experiments). […] Lysates were incubated for 45 min at 4 °C. Subsequently, lysates were incubated with Kinobeads ε (17.5 µl of settled beads) for 30 min at 4 °C. To assess the degree of protein depletion from the lysates by Kinobeads, the flow through of the DMSO control was recovered for a pulldown of pulldown experiment where the lysate was incubated a second time with fresh Kinobeads. Beads were washed in three steps with buffer containing 0.4%, 0.2% and no IGEPAL. Bound proteins were reduced with 50 mM DTT in 8 M Urea, 40 mM Tris-HCl pH 7.4 for 30 min at room temperature. After alkylation with 55 mM chloroacetamide, the urea concentration was reduced to 1–2 M and proteins were digested with trypsin. Acidified peptides were desalted and concentrated using SepPak tC18 µEluation plates (Waters). Samples were frozen, dried by vacuum centrifugation and stored at −20 °C.
Each kinase inhibitor was processed together with all DMSO controls of the same plate. Additionally, each search was supplemented with five high quality DMSO controls for consistent peptide identification and protein grouping. The resultant file (proteinGroups.txt) was used for subsequent filtering, normalization, data visualization and target annotation that was automatically performed by a data processing pipeline built in house that used R (including the ‘drc’ and ‘heatmap’ packages). First, reverse hits, potential contaminants and not quantified proteins in the DMSO control samples were discarded. Protein raw and label-free quantification intensities were normalized to the median DMSO control intensity to obtain relative residual binding intensities for each protein group at every inhibitor concentration and standard deviations of the DMSO control intensity were calculated. IC50 values were estimated based on the following equation IC50=I×100−inhibition/inhibition where [I] is the inhibitor concentration that was used for IC50 calculation and ‘inhibition’ the relative residual binding intensity. […]. Estimated Kdapp values were then calculated by multiplying the estimated IC50 values with a protein-dependent correction factor that was limited to a maximum value of one. The correction factor accounts for the depletion of a target protein from the lysate by Kinobeads. The depletion can be measured by the ratio of the amount of protein captured in two consecutive pulldowns of the same DMSO control lysate. In this study, correction factors were determined in separate experiments using the same lysate mixture and the same bead batch. Correction factors were set to the median of all correction factors. Targets of kinase inhibitors were annotated using the previously published random forest classifier. A training data set was annotated manually. […]

SMILES	CATDS	also measured
CCN1CCN(Cc2ccc(Nc3ncc(F)c(-c4cc(F)c5nc(C)n(C(C)C)c5c4)n3)nc2)CC1 [Abemaciclib]	0	–
CN(C)C/C=C/C(=O)Nc1cc2c(Nc3ccc(F)c(Cl)c3)ncnc2cc1O[C@H]1CCOC1 [Afatinib]	0	–
C[C@]12O[C@H](C[C@]1(O)CO)n1c3ccccc3c3c4c(c5c6ccccc6n2c5c31)CNC4=O [Lestaurtinib]	–	potency estimated from few doses (read-out: Lestaurtinib Drugmatrix value, Gene Name GAK): 577 nM
C#Cc1cccc(Nc2ncnc3cc(OC)c(OC4CCN(C)CC4)cc23)c1 [BI00007366]	–	potency estimated from few doses (Kinobeads two-dose, Drugmatrix - all 2, read-out: apparent Kd GAK): 634 nM
CCc1cc2c(cc1N1CCC(N3CCOCC3)CC1)C(C)(C)c1[nH]c3cc(C#N)ccc3c1C2=O [Alectinib]	0.6004	–
Nc1ncnc2[nH]c(-c3ccccc3)nc12 [AH5015_KCGS]	0.09213	–
N#CC1(c2ccc(NC(=O)c3cccnc3NCc3ccncc3)cc2)CCCC1 [Apatinib]	0	–
